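These data come from cells grown in 96-well plates and exposed to compound for 48 hours at five concentrations. TGI: total growth inhibition.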
Key:
Assay in all cases: inhibition of tumour cell growth, NCI panel, 48 h
[1] = system: 786-0 renal
[2] = system: A498 renal
[3] = system: A549 NSCLC
[4] = system: ACHN renal
[5] = system: CAKI-1 renal
[6] = system: CCRF-CEM leukemia
[7] = system: COLO 205 colon
[8] = system: DLD-1 colon
[9] = system: DMS 114 small cell lung
[10] = system: DMS 273 small cell lung
[11] = system: EKVX NSCLC
[12] = system: HCC-2998 colon
[13] = system: HCT-116 colon
[14] = system: HCT-15 colon
[15] = system: HL-60(TB) leukemia
[16] = system: HOP-18 NSCLC
[17] = system: HOP-62 NSCLC
[18] = system: HOP-92 NSCLC
[19] = system: HT29 colon
[20] = system: IGROV1 ovarian
[21] = system: K-562 leukemia
[22] = system: KM12 colon
[23] = system: KM20L2 colon
[24] = system: LXFL 529 NSCLC
[25] = system: M14 melanoma
[26] = system: M19-MEL melanoma
[27] = system: MALME-3M melanoma
[28] = system: MOLT-4 leukemia
[29] = system: NCI-H226 lung
[30] = system: NCI-H23 lung
[31] = system: OVCAR-3 ovarian
[32] = system: OVCAR-4 ovarian
[33] = system: OVCAR-5 ovarian
[34] = system: OVCAR-8 ovarian
[35] = system: RPMI-8226 leukemia
[36] = system: RXF 393 renal
[37] = system: RXF-631 renal
[38] = system: SF-268 CNS
[39] = system: SN12C renal
[40] = system: SNB-19 CNS
[41] = system: SNB-75 CNS
[42] = system: SNB-78 CNS
[43] = system: SR leukemia
[44] = system: SW-620 colon
[45] = system: U251 CNS
[46] = system: UACC-257 melanoma
[47] = system: UACC-62 melanoma
[48] = system: XF 498 CNS
[49] = system: LOX IMVI melanoma
[50] = system: NCI-H460 lung
[51] = system: NCI-H522 lung
[52] = system: SF-295 CNS
[53] = system: SF-539 CNS
[54] = system: SK-MEL-2 melanoma
[55] = system: SK-MEL-28 melanoma
[56] = system: SK-MEL-5 melanoma
[57] = system: SK-OV-3 ovarian
[58] = system: TK-10 renal
[59] = system: UO-31 renal

Measured: TGI

O=C(Nc1nc2ccc([N+](=O)[O-])cc2s1)C(=O)C(C(=O)c1ccncc1)C1OC(=O)c2ccccc21 (stereo unspecified)
not listed: [49] | [50] | [51] | [52] | [53] | [54] | [55] | [56] | [57] | [58] | [59]
> 100 µM: all other assays above

C=C1CCCC2[C@](C)(CC3=C(O)C(=O)C=C(OC)C3=O)[C@@H](C)CC[C@]12C (stereo partly specified)
> 100 µM: [11] | [21] | [49] | [34] | [37] | [38] | [55] | [39] | [41] | [58] | [45]
21.2 µM: [7]
27.9 µM: [5]
14.6 µM: [6]
62.2 µM: [57]
8.59 µM: [16]
16.4 µM: [46]
12.5 µM: [30] | [54]
17.7 µM: [13]
47.7 µM: [4]
40.2 µM: [35]
56.7 µM: [48]
16 µM: [20] | [53]
9.35 µM: [56]
7.61 µM: [9]
5.03 µM: [25]
10.6 µM: [36]
5.95 µM: [26]
53.3 µM: [44]
17.4 µM: [22]
9.93 µM: [27]
6.63 µM: [47]
18.3 µM: [1]
36.1 µM: [19]
13.7 µM: [52]
28.5 µM: [51]
9.59 µM: [15]
78.2 µM: [32]
17.5 µM: [50]
31.3 µM: [31]
69.1 µM: [8]
11 µM: [3]
49.6 µM: [14]
27.2 µM: [24]
31.8 µM: [23]

O=C(CSc1nnc(-c2ccc(N=Cc3ccc(Cl)cc3)cc2)o1)Nc1ccc([N+](=O)[O-])cc1
> 100 µM: [3] | [7] | [11] | [16] | [17] | [27] | [50] | [34] | [57] | [58]
38.3 µM: [51]
42 µM: [25]
36.7 µM: [28]
84.4 µM: [42]
36.1 µM: [1]
36.3 µM: [44]
8.01 µM: [35]
9.43 µM: [13]
79.4 µM: [52]
97.1 µM: [21]
33.7 µM: [55] | [40]
25.7 µM: [4]
37.7 µM: [39]
30.4 µM: [10]
63.9 µM: [15]
47.6 µM: [6]
37.1 µM: [45]
42.4 µM: [47]
67.9 µM: [56]
58.1 µM: [41]
34.6 µM: [36]
32.9 µM: [9]
47.1 µM: [48]
32.6 µM: [14]
36.9 µM: [26]
35.9 µM: [19] | [24]
48.6 µM: [29]
46.1 µM: [38]
44.3 µM: [46]
84.9 µM: [32]
73.5 µM: [23]
38.1 µM: [30]
48.7 µM: [43]
60.8 µM: [54]
37.2 µM: [59]
22.4 µM: [49]

Cc1ccccc1C(=O)Oc1ccc(OCc2ccccc2)cc1
68 µM: [43]
not listed: [5] | [29] | [37] | [51] | [54]
> 100 µM: all other assays above

Cc1ncc(CCl)c(CCl)c1O
not listed: [3] | [11] | [14] | [16] | [19] | [22] | [23] | [31] | [33] | [34] | [36] | [40] | [42] | [44] | [45] | [46] | [49] | [50] | [52] | [56] | [58]
> 100 µM: all other assays above

CN(C)c1ccc(/C=C/C(=O)O)cc1
not listed: [1] | [10] | [18] | [30] | [32] | [36] | [37] | [43] | [45] | [55] | [58]
> 100 µM: all other assays above

Cc1c(-c2nnc(-c3ccccc3)o2)c(=O)n(-c2ccccc2)n1C
not listed: [5] | [33] | [37] | [56]
> 100 µM: all other assays above

OCC(O)C(O)C(O)c1nn(-c2ccccc2)c2nc3cc(Cl)c(Cl)cc3nc12 (stereo unspecified)
57 µM: [19]
56.7 µM: [5]
47.7 µM: [36]
83.6 µM: [33]
98.4 µM: [12]
47.8 µM: [41]
98 µM: [54]
69.3 µM: [48]
44.1 µM: [21]
91.2 µM: [15]
77.7 µM: [27]
41.1 µM: [25]
87.6 µM: [28]
38.5 µM: [53]
not listed: [2] | [14] | [18] | [22] | [37] | [56]
> 100 µM: all other assays above
